The subject of one series is J774 cells. Description: Cytotoxicity in mammalian cells (CellTiter-Glo), J774. Type of series: cell-based. To be noted: J774 murine macrophage line; 72 h drug incubation; mean of three experiments; read-out: mammalian cells CC50 (±SEM), J774. How it is done:
(§1) Cell lines J774 and HepG2 were incubated with the drug for 72 h, the same time frame as employed to determine antimalarial activity. Cytotoxicity was evaluated in parallel with ATV as a representative parental drug, while doxorubicin was used as a standard cytotoxic drug. These experiments were also used to estimate the in vitro selectivity index (Table 2).
(§2) Doxorubicin chloridrate (Eurofarma, São Paulo, Brazil) was used as a positive control, while untreated cells were employed as negative controls. Bioluminescence readings were performed using a Filtermax F5Multi-Mode instrument (Molecular Devices, Sunnyvale, CA) using the CellTiter-Glo kit (Promega Corporation, Madison, USA). Three independent experiments were performed and CC50 values were calculated.
A general note: ATP-based viability assays read luminescence as a measure of living cells.

In series [1] the test system is P. falciparum 3D7 (CQ-susceptible strain). Description: Antiplasmodial activity, asexual blood stages, HRP2 ELISA-based assay, 3D7 strain. Type of series: cell-based, Plasmodium falciparum. Particulars: read-out: P. falciparum IC50 (±SEM), 3D7. The source says: We determined the half-maximal inhibitory concentration (IC50) of the complexes against asexual blood stages of P. falciparum using CQ-susceptible and CQ-resistant strains (Table 2). […]. Two strains were selected for the tests: the CQ-susceptible 3D7 strain (isolated in West Africa; obtained from MR4, VA, USA), and the CQ-resistant W2 strain (isolated in Indochina; obtained from MR4, VA, USA). Both were maintained in culture in RPMI 1640 (Invitrogen, Paisley, UK), supplemented with 10% human serum (Abcys S.A. Paris, France), and buffered with 25 mM HEPES and 25 mM NaHCO3. Parasites were grown in A-positive human blood (Etablissement Français du Sang, Marseille, France) in controlled atmospheric conditions that consisted of 10% O2, 5% CO2, and 85% N2 at 37 °C with 95% humidity. […]
For in vitro isotopic microtests, 25 μL/well of antimalarial drug and 200 μL/well of parasitized red blood cell suspension (final parasitemia 0.5%, final hematocrit 1.5%) were distributed into 96-well plates. The plates were incubated for 72 h at 37 °C in 85% N2, 10% O2, 5% CO2. After freezing and then thawing, the hemolyzed cultures were homogenized by vortexing the plates. The drug susceptibility assay was performed using the HRP2 ELISA-based assay of the Malaria Ag Celisa kit (ref KM2159, Cellabs PTY LDT, Brookvale, Australia), as described previously.[72] […] […]. IC50 are expressed as means of at least 5 to 7 independent experiments.

Series [2] deals with P. falciparum W2 (CQ-resistant strain). Description: Antiplasmodial activity, asexual blood stages, HRP2 ELISA-based assay, W2 strain. To be noted: read-out: P. falciparum IC50 (±SEM), W2. Type of series: cell-based, Plasmodium falciparum. The method, then: The potency of the metal complexes to inhibit parasite growth was also examined in comparison with ATV.
The two strains were synchronized twice with sorbitol before use,[69] and clonality was verified every 15 days through PCR genotyping of the polymorphic genetic markers msp1 and msp2 and microsatellite loci.[70],[71] Compounds were resuspended in DMSO and then diluted in RPMI-DMSO (99v/1v) to obtain final concentrations ranging from 0.25 to 20000 nM.
After freezing and then thawing, the hemolyzed cultures were homogenized by vortexing the plates. The drug susceptibility assay was performed using the HRP2 ELISA-based assay of the Malaria Ag Celisa kit (ref KM2159, Cellabs PTY LDT, Brookvale, Australia), as described previously.[72]
(An ELISA detects its analyte on a solid surface through an enzyme-linked reagent.)

Series [3] concerns β-hematin crystal formation. As to the kind of experiment: β-Hematin crystal formation by FTIR spectroscopy. The series is classed as biochemical. Particulars: acid-buffered medium pH 5; 1:3 hematin/compound ratio. How it is done:
The ability of these compounds to inhibit the formation of β-hematin crystals was investigated by IR spectroscopy (Figure 2f). Of note, β-hematin crystal formation was assayed in an acid-buffered medium, while hemin titration was assayed at neutral pH. […]. For both ATV and complexes 1–3, there may have been overlapping between a decrease in the (C = O) band of heme species and a (C = O) band of quinone. However, there was no danger of overlaps in the (C–O) band of heme species at 1210 cm^–1, since these species are absent from the drugs.
The conversion of hematin into β-hematin crystals was determined by FTIR spectroscopy as described previously.[52] In a microtube, 20 mg hemin and three equivalents of the compounds were dissolved in 3 mL 0.1 M NaOH solution and stirred for 30 min at 60 °C. Then, 0.3 mL 0.1 M HCl and 1.7 mL sodium acetate buffer (10 M, pH 5) were added at the same temperature. […] After incubation for 120 min, the reaction mixture was cooled on ice for 10 min and then centrifuged and washed with water to remove salts. Resulting crystals were dried and IR spectra were obtained using ATR mode.[66]−[68]

A short description of series [4]: Interaction with ferriprotoporphyrin IX, spectroscopic titration of Soret band at 402 nm. Type of series: binding. Particulars: pH 7.4; 40% aqueous DMSO; 1:1 complexation model; mean and SEM of three experiments. How it is done:
The association constants (Log K) of the compounds with hemin were determined at pH 7.4 using a 1:1 complexation model with the equation proposed by Egan et al.[52] for the nonlinear least-squares fitting (Figure 2, Table 2).
Following a procedure described in the literature,[52] the association constant (Log K) of the drugs with ferriprotoporphyrin IX was determined in 40% aqueous DMSO. A stock solution of hemin chloride was prepared by adding 3.5 mg hemin to 10 mL DMSO and adjusted to pH 7.5. A working solution of hemin in 40% DMSO was further prepared by mixing 140 μL hemin stock solution, 5 mL distilled water, 3.86 mL DMSO, and 1 mL 0.2 M Tris (tris(hydroxymethyl)aminomethane) buffer. Aliquots of compounds were added to this working hemin solution. Blank solutions containing only hemin or compounds were prepared to subtract the absorbance of the compounds. […] Binding affinity was determined using the equation A = (A0 + A∞K[C])/(1 + K[C]) for a 1:1 complexation model using nonlinear least-squares fitting, where A0 is the absorbance of Fe(III)PPIX, A∞ is the absorbance of the compound–hemin adduct at saturation, and K is the association constant. Three independent experiments were performed.

Series [5] is described as follows: Cytotoxicity in mammalian cells (CellTiter-Glo), HepG2. Type of series: cell-based. Particulars: HepG2 hepatocellular carcinoma cells; HepG2 human hepatocellular carcinoma line; 72 h drug incubation; mean of three experiments; read-out: mammalian cells CC50 (±SEM), HepG2. How it is done: as §1, §2
A short description of series [6]: Cytotoxicity in mammalian cells (CellTiter-Glo), J774. To be noted: mouse, J774 macrophage cells; J774 murine macrophage line; 72 h drug incubation; mean of three experiments; read-out: mammalian cells CC50 (±SEM), J774. Type of series: cell-based. How it is done: as §1, §2
[7] abbreviates: CQ-susceptible 3D7 strain, 72 h drug incubation, mean of five to seven experiments.
Where [8] appears, read: CQ-resistant W2 strain, 72 h drug incubation, mean of five to seven experiments.

Read-outs that look alike come from different tables or passages of the source.

One may read the CC50 as the concentration giving 50% cytotoxicity. The term IC50 denotes the concentration needed to halve the response being measured. `[Cl][Au].c1ccc(P(c2ccccc2)c2ccccc2)cc1` [AuClPPh3, [Au(PPh3)Cl]]: the CC50 in the series on J774 cells was determined as 4.1 ± 0.8 µM. Moreover, the 50% inhibitory concentration (IC50) is 1.43 ± 0.309 µM in series [1] (setting [7]) and 3.29 ± 0.629 µM in series [2] (setting [8]).

In the case of `CCN(CC)CCCC(C)Nc1ccnc2cc(Cl)ccc12` (stereo not drawn) [CQ, chloroquine], the “inhibition of β-hematin crystal formation (IR bands 1663 and 1210 cm^–1)” value in series [3] is given as “decreased simultaneously in these two bands”. In addition, the IC50 in series [1] (Plasmodium falciparum, 3D7, 72 h) is 0.0238 ± 0.0055 µM; in series [2] (Plasmodium falciparum, W2, 72 h) it was 0.526 ± 0.126 µM. Also, in series [4], the “log K (association constant of drug binding to hemin)” value came to 4.78 ± 0.01.

In the case of `COc1cccc2c1C(=O)c1c(O)c3c(c(O)c1C2=O)C[C@@](O)(C(=O)CO)C[C@@H]3O[C@H]1C[C@H](N)[C@H](O)[C@H](C)O1` [DOX, Doxorubicin, reference compound], the CC50 at 72 h in series [5] is less than 0.12 µM; in series [6] it was 0.44 ± 0.31 µM.

On to `O=[N+]([O-])[O-].[Cu+].c1ccc(P(c2ccccc2)c2ccccc2)cc1.c1ccc(P(c2ccccc2)c2ccccc2)cc1` [[Cu(PPh3)2NO3]], for which the CC50 in the series with J774 cells is more than 80 µM. Moreover, the IC50 in series [1] (setting [7]) and in series [2] (setting [8]) was more than 20 µM throughout.

Values taken from article PMC11409218, “Metal(triphenylphosphine)-atovaquone Complexes: Synthesis, Antimalarial Activity, and Suppression of Heme Detoxification” (Inorganic Chemistry, 2024).
